Source: ChEMBL document CHEMBL1681676, “The design and synthesis of novel N-hydroxyformamide inhibitors of ADAM-TS4 for the treatment of osteoarthritis” (Bioorg Med Chem Lett, 2011)

test system: not listed separately; experiment: Oral bioavailability in Han Wistar rat at 3 to 10 mg/kg by LC-MS/MS analysis; type: ADME, organism-based; settings: in vivo

| bioavailability | SMILES |
| --- | --- |
| 0% | C[C@@H](C[C@@](C)(CS(=O)(=O)N1CCC(OCc2ccc(Cl)cc2Cl)CC1)N(O)C=O)c1ncc(F)cn1 |
| 30% | C[C@@H](C[C@@](C)(CS(=O)(=O)N1CCN(CCc2ccc(Cl)cc2Cl)CC1)N(O)C=O)c1ncc(F)cn1 |
| 38% | C[C@@H](C[C@@](C)(CS(=O)(=O)N1CCC(CCc2ccc(Cl)cc2Cl)CC1)N(O)C=O)c1ncc(F)cn1 |

test system: not listed separately; experiment: Clearance in Han Wistar rat at 2 mg/kg, iv by LC-MS/MS analysis; type: ADME, organism-based; set-up: dose 2 mg/kg, route intravenous; settings: in vivo

| clearance | SMILES |
| --- | --- |
| 130 mL/min/kg | C[C@@H](C[C@@](C)(CS(=O)(=O)N1CCC(OCc2ccc(Cl)cc2Cl)CC1)N(O)C=O)c1ncc(F)cn1 |
| 14 mL/min/kg | C[C@@H](C[C@@](C)(CS(=O)(=O)N1CCN(CCc2ccc(Cl)cc2Cl)CC1)N(O)C=O)c1ncc(F)cn1 |
| 20 mL/min/kg | C[C@@H](C[C@@](C)(CS(=O)(=O)N1CCC(CCc2ccc(Cl)cc2Cl)CC1)N(O)C=O)c1ncc(F)cn1 |

molecular target: Matrix metalloproteinase-14 (Homo sapiens, UniProt P50281); experiment: Inhibition of recombinant human MMP14 assessed as substrate cleavage by measuring increase in fluorescence after 16 hrs; settings: not given

| IC50 | SMILES |
| --- | --- |
| 430 nM | C[C@@H](C[C@@](C)(CS(=O)(=O)N1CCC(OCc2ccc(Cl)cc2Cl)CC1)N(O)C=O)c1ncc(F)cn1 |

molecular target: Collagenase 3 (Homo sapiens, UniProt P45452); experiment: Inhibition of recombinant human MMP13 assessed as substrate cleavage by measuring increase in fluorescence after 16 hrs; settings: not given

| IC50 | SMILES |
| --- | --- |
| 430 nM | C[C@@H](C[C@@](C)(CS(=O)(=O)N1CCC(OCc2ccc(Cl)cc2Cl)CC1)N(O)C=O)c1ncc(F)cn1 |

molecular target: Cytochrome P450 3A4 (Homo sapiens, UniProt P08684); experiment: Inhibition of CYP3A4; type: ADME; settings: not given
Sequence (P08684 whole entry): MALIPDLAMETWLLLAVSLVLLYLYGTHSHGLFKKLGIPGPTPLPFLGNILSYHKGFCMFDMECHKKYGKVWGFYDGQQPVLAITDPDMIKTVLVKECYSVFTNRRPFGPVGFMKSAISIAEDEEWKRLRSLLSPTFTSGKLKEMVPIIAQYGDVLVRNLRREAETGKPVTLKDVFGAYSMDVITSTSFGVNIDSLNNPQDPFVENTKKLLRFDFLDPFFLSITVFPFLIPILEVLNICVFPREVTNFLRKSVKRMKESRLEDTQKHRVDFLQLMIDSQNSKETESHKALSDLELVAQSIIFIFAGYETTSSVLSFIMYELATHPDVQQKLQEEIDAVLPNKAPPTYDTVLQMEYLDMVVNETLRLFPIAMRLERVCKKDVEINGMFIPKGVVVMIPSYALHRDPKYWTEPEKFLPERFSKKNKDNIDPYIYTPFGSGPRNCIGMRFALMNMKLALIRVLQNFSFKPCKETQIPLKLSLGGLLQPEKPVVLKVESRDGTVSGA

| IC50 | SMILES |
| --- | --- |
| > 10000 nM | C[C@@H](C[C@@](C)(CS(=O)(=O)N1CCC(OCc2ccc(Cl)cc2Cl)CC1)N(O)C=O)c1ncc(F)cn1 |

molecular target: T1, A disintegrin and metalloproteinase with thrombospondin motifs 4 (Homo sapiens, UniProt O75173); experiment: Inhibition of ADAMTS-4 assessed as substrate cleavage by measuring increase in fluorescence after 16 hrs; settings: not given
T1 sequence (O75173 whole entry): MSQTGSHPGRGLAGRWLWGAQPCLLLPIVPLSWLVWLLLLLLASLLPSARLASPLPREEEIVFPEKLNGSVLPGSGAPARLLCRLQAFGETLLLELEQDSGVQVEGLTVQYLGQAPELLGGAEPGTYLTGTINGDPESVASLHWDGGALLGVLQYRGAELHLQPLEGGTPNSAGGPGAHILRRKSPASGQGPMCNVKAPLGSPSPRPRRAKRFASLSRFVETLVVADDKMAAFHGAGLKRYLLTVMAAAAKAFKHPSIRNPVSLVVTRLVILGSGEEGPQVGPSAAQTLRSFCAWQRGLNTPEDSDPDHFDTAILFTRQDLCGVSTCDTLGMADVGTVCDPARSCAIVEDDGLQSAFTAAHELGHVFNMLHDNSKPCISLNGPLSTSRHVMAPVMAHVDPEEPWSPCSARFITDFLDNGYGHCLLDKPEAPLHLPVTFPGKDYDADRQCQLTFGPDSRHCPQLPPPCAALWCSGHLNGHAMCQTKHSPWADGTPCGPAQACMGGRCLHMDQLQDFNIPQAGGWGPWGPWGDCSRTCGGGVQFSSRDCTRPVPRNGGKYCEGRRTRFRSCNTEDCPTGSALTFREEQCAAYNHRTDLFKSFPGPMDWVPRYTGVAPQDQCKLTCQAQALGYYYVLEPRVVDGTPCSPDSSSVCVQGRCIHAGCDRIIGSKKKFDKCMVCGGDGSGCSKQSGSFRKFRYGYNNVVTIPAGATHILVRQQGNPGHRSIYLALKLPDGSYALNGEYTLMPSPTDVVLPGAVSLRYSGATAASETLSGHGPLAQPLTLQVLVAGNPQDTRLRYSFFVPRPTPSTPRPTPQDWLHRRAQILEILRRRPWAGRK

| IC50 | SMILES |
| --- | --- |
| 3.8 nM | C[C@@H](C[C@@](C)(CS(=O)(=O)N1CCN(CCc2ccc(Cl)cc2Cl)CC1)N(O)C=O)c1ncc(F)cn1 |
| 1.1 nM | C[C@@H](C[C@@](C)(CS(=O)(=O)N1CCC(CCc2ccc(Cl)cc2Cl)CC1)N(O)C=O)c1ncc(F)cn1 |

test system: not listed separately; experiment: Intrinsic clearance in rat hepatocytes measured per 10^6 cells; type: ADME, cell-based, Liver, Hepatocyte; settings: not given

| hepatocyte CLint | SMILES |
| --- | --- |
| 56.9 µL/min/1e6 cells | C[C@@H](C[C@@](C)(CS(=O)(=O)N1CCC(OCc2ccc(Cl)cc2Cl)CC1)N(O)C=O)c1ncc(F)cn1 |
| 10.2 µL/min/1e6 cells | C[C@@H](C[C@@](C)(CS(=O)(=O)N1CCN(CCc2ccc(Cl)cc2Cl)CC1)N(O)C=O)c1ncc(F)cn1 |
| 7.6 µL/min/1e6 cells | C[C@@H](C[C@@](C)(CS(=O)(=O)N1CCC(CCc2ccc(Cl)cc2Cl)CC1)N(O)C=O)c1ncc(F)cn1 |

test system: not listed separately; experiment: Intrinsic clearance in human liver microsomes; settings: not given

| microsomal CLint | SMILES |
| --- | --- |
| 107 µL/min/mg | C[C@@H](C[C@@](C)(CS(=O)(=O)N1CCC(OCc2ccc(Cl)cc2Cl)CC1)N(O)C=O)c1ncc(F)cn1 |
| 54 µL/min/mg | C[C@@H](C[C@@](C)(CS(=O)(=O)N1CCN(CCc2ccc(Cl)cc2Cl)CC1)N(O)C=O)c1ncc(F)cn1 |
| 6.9 µL/min/mg | C[C@@H](C[C@@](C)(CS(=O)(=O)N1CCC(CCc2ccc(Cl)cc2Cl)CC1)N(O)C=O)c1ncc(F)cn1 |

test system: not listed separately; experiment: Half life in Han Wistar rat at 2 mg/kg, iv and po by LC-MS/MS analysis; type: ADME, organism-based; set-up: dose 2 mg/kg, route oral; settings: in vivo

| half-life | SMILES |
| --- | --- |
| 0.3 h | C[C@@H](C[C@@](C)(CS(=O)(=O)N1CCC(OCc2ccc(Cl)cc2Cl)CC1)N(O)C=O)c1ncc(F)cn1 |
| 5.6 h | C[C@@H](C[C@@](C)(CS(=O)(=O)N1CCN(CCc2ccc(Cl)cc2Cl)CC1)N(O)C=O)c1ncc(F)cn1 |
| 14.9 h | C[C@@H](C[C@@](C)(CS(=O)(=O)N1CCC(CCc2ccc(Cl)cc2Cl)CC1)N(O)C=O)c1ncc(F)cn1 |

molecular target: T2, Interstitial collagenase (Homo sapiens, UniProt P03956); experiment: Inhibition of recombinant human MMP1 assessed as substrate cleavage by measuring increase in fluorescence after 16 hrs; settings: not given
T2 sequence (P03956 whole entry): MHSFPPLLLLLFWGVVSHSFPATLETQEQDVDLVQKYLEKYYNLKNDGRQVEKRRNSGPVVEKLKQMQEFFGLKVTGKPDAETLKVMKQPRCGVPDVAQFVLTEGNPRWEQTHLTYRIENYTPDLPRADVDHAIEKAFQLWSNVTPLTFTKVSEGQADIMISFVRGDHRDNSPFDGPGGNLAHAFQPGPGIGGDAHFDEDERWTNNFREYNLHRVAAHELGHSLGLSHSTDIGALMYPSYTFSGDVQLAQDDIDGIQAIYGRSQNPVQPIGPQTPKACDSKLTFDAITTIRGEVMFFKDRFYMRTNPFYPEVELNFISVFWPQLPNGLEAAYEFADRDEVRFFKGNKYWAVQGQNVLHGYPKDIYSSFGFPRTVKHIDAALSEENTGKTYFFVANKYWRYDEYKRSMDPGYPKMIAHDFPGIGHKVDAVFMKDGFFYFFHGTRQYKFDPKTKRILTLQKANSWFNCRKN

| IC50 | SMILES |
| --- | --- |
| > 10000 nM | C[C@@H](C[C@@](C)(CS(=O)(=O)N1CCC(OCc2ccc(Cl)cc2Cl)CC1)N(O)C=O)c1ncc(F)cn1 |

molecular target: Voltage-gated inwardly rectifying potassium channel KCNH2 (Homo sapiens, UniProt Q12809); experiment: Inhibition of human ERG; settings: not given
Sequence (Q12809 whole entry): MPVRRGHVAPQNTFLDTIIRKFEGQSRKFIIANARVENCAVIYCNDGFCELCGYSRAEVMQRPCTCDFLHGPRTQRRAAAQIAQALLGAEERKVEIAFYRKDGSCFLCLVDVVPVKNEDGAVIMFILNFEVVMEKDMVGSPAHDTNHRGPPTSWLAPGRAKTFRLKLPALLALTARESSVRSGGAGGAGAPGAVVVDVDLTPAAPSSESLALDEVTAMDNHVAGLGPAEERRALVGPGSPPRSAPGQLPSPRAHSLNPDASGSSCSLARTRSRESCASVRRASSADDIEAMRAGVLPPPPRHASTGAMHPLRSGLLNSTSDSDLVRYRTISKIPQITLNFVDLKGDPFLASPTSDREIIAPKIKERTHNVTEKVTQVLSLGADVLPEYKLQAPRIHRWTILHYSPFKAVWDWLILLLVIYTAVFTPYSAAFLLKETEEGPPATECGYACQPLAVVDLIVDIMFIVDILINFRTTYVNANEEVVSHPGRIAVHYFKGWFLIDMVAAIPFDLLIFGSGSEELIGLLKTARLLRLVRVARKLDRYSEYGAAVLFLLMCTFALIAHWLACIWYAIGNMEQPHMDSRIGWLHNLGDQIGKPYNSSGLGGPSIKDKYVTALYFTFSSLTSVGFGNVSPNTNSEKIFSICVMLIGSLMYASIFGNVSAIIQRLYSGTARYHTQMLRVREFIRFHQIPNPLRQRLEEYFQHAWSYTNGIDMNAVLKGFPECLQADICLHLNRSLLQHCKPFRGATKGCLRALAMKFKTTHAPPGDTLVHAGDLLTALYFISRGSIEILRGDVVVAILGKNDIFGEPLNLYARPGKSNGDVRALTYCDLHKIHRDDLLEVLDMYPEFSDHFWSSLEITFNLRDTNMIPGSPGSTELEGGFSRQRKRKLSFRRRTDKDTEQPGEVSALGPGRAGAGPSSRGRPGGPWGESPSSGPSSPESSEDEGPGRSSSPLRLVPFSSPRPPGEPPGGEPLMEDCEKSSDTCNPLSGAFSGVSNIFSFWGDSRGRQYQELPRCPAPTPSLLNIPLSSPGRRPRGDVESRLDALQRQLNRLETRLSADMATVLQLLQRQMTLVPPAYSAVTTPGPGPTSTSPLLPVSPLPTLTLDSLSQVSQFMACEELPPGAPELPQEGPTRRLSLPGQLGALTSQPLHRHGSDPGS

| SMILES | IC50 |
| --- | --- |
| C[C@@H](C[C@@](C)(CS(=O)(=O)N1CCC(OCc2ccc(Cl)cc2Cl)CC1)N(O)C=O)c1ncc(F)cn1 | 8000 nM |
